Like-named read-outs stand apart in the source and are kept apart here.
How the values were obtained:
Type in all cases: in vivo
[1] = system: barnyardgrass (Echinochloa crus-galli); assay: Test A postemergence; conditions: Echinochloa crus-galli, post-emergence, 240 h, read-out: Plant response rating, Barnyardgrass; for pest or weed control at 125 g/ha: 125 g ai/ha, Postemergence, visual injury after approximately 10 d, 0 to 100 scale where 0 is no effect and 100 is complete control; for pest or weed control at 500 g/ha: 500 g ai/ha, postemergence, visual injury, 0 to 100 scale (0 no effect, 100 complete control), approx. 10 d
Outline: (§1)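 Visual injury scores from 0, no effect, to 100, complete control, were assigned versus untreated controls roughly 10 d after treatment in the greenhouse. Test chemicals, formulated with surfactant in a non-phytotoxic solvent, were applied to planted seeds as a preemergence soil spray or postemergence to one- to two-leaf plants 2 to 10 cm tall, in loam–sand soil.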

corn (Zea mays) = assay: Test A postemergence; conditions: Zea mays, post-emergence, 240 h; for Corn plant response rating (crop injury, 0 = no effect, 100 = complete kill) at 125 g/ha: 125 g ai/ha, Postemergence, visual injury after approximately 10 d, 0 to 100 scale where 0 is no effect and 100 is complete control; for Corn plant response rating (crop injury, 0 = no effect, 100 = complete kill) at 500 g/ha: 500 g ai/ha, postemergence, visual injury, 0 to 100 scale (0 no effect, 100 complete control), approx. 10 d
Outline: as §1

[2] = system: Galium (catchweed bedstraw, Galium aparine); assay: Test A postemergence; conditions: Galium, post-emergence, 240 h; for pest or weed control at 125 g/ha: 125 g ai/ha; for pest or weed control at 500 g/ha: 500 g ai/ha, visual injury, 0 to 100 scale (0 no effect, 100 complete control)
Outline: as §1

[3] = system: blackgrass (Alopecurus myosuroides); assay: Test A postemergence; conditions: Alopecurus myosuroides, post-emergence, 240 h, read-out: Plant response rating, Blackgrass; for pest or weed control at 125 g/ha: 125 g ai/ha, Postemergence, visual injury after approximately 10 d, 0 to 100 scale where 0 is no effect and 100 is complete control; for pest or weed control at 500 g/ha: 500 g ai/ha, postemergence, visual injury, 0 to 100 scale (0 no effect, 100 complete control), approx. 10 d
Outline: as §1

[4] = system: ragweed (common ragweed, Ambrosia elatior); assay: Test A postemergence; conditions: Ambrosia artemisiifolia, post-emergence, 240 h; for pest or weed control at 125 g/ha: 125 g ai/ha; for pest or weed control at 500 g/ha: 500 g ai/ha, visual injury, 0 to 100 scale (0 no effect, 100 complete control)
Outline: as §1

[5] = system: ryegrass, Italian (Italian ryegrass, Lolium multiflorum); assay: Test A postemergence; conditions: Lolium multiflorum, post-emergence, 240 h; for pest or weed control at 125 g/ha: 125 g ai/ha; for pest or weed control at 500 g/ha: 500 g ai/ha, visual injury, 0 to 100 scale (0 no effect, 100 complete control)
Outline: as §1

[6] = system: wheat (Triticum aestivum); assay: Test A postemergence; conditions: Triticum aestivum, post-emergence, 240 h; for plant injury at 125 g/ha: 125 g ai/ha; for plant injury at 500 g/ha: 500 g ai/ha, visual injury, 0 to 100 scale (0 no effect, 100 complete control)
Outline: as §1

[7] = system: pigweed (Amaranthus retroflexus); assay: Test A postemergence; conditions: Amaranthus retroflexus, post-emergence, 240 h; for pest or weed control at 125 g/ha: 125 g ai/ha; for pest or weed control at 500 g/ha: 500 g ai/ha, visual injury, 0 to 100 scale (0 no effect, 100 complete control)
Outline: as §1

Kochia (Kochia scoparia) = assay: Test A postemergence; conditions: Bassia scoparia, post-emergence, 240 h; for pest or weed control at 125 g/ha: 125 g ai/ha; for pest or weed control at 500 g/ha: 500 g ai/ha, visual injury, 0 to 100 scale (0 no effect, 100 complete control)
Outline: as §1

[8] = system: giant foxtail (Setaria faberii); assay: Test A postemergence; conditions: Setaria faberi, post-emergence, 240 h; for pest or weed control at 125 g/ha: 125 g ai/ha; for pest or weed control at 500 g/ha: 500 g ai/ha, visual injury, 0 to 100 scale (0 no effect, 100 complete control)
Outline: as §1

[9] = system: pigweed (Amaranthus retroflexus); assay: Test A preemergence; conditions: Amaranthus retroflexus, pre-emergence, 240 h; for pest or weed control at 125 g/ha: 125 g ai/ha, Preemergence, visual injury rating after approximately 10 d, read-out: Pigweed plant response rating (0 to 100 scale, 0 is no effect, 100 is complete control); for pest or weed control at 500 g/ha: 500 g ai/ha, preemergence, visual injury rating about 10 d after treatment, 0 to 100 scale (0 no effect, 100 complete control), read-out: Pigweed plant response rating
[10] = system: barnyardgrass (Echinochloa crus-galli); assay: Test B flooded paddy test; conditions: Echinochloa crus-galli, Flood, 250 g ai/ha, read-out: Barnyardgrass plant response rating
Outline: (§2)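 Visual ratings (0 none to 100 complete control) are relative to untreated plants, taken 13–15 d after treatment in a greenhouse. Test material went straight into floodwater standing 3 cm above the soil, kept constant, on plants at the 2-leaf stage.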

[11] = system: sedge, umbrella (small-flower umbrella sedge, Cyperus difformis); assay: Test B flooded paddy test; conditions: Cyperus difformis, Flood, 250 g ai/ha, read-out: Sedge, Umbrella plant response rating
Outline: as §2

rice (Oryra sativa) = assay: Test B flooded paddy test; conditions: Oryza sativa, Flood, 250 g ai/ha, read-out: Rice plant response rating
Outline: as §2

[12] = system: ducksalad (Heteranthera limosa); assay: Test B flooded paddy test; conditions: Heteranthera limosa, Flood, 250 g ai/ha, read-out: Ducksalad plant response rating
Outline: as §2

[13] = Postemergence, visual injury after approximately 10 d, 0 to 100 scale where 0 is no effect and 100 is complete control, read-out: Plant response rating, Galium
[14] = Postemergence, visual injury after approximately 10 d, 0 to 100 scale where 0 is no effect and 100 is complete control, read-out: Plant response rating, Ragweed
[15] = Postemergence, visual injury after approximately 10 d, 0 to 100 scale where 0 is no effect and 100 is complete control, read-out: Plant response rating, Ryegrass, Italian
[16] = Postemergence, visual injury after approximately 10 d, 0 to 100 scale where 0 is no effect and 100 is complete control, read-out: Plant response rating, Wheat
[17] = Postemergence, visual injury after approximately 10 d, 0 to 100 scale where 0 is no effect and 100 is complete control, read-out: Plant response rating, Pigweed
[18] = Postemergence, visual injury after approximately 10 d, 0 to 100 scale where 0 is no effect and 100 is complete control, read-out: Plant response rating, Kochia
[19] = Postemergence, visual injury after approximately 10 d, 0 to 100 scale where 0 is no effect and 100 is complete control, read-out: Plant response rating, Foxtail, Giant
[20] = scale of 0 to 100 where 0 is no effect and 100 is complete control
[21] = postemergence, approx. 10 d, read-out: Plant response rating, Galium
[22] = postemergence, approx. 10 d, read-out: Plant response rating, Ragweed
[23] = postemergence, approx. 10 d, read-out: Plant response rating, Ryegrass, Italian
[24] = postemergence, approx. 10 d, read-out: Plant response rating, Wheat
[25] = postemergence, approx. 10 d, read-out: Plant response rating, Pigweed
[26] = postemergence, approx. 10 d, read-out: Plant response rating, Kochia
[27] = postemergence, approx. 10 d, read-out: Plant response rating, Foxtail, Giant
[28] = 0 to 100 scale where 0 is no effect and 100 is complete control

SMILES | pest or weed control at 125 g/ha [1] [%] | Corn plant response rating (crop injury, 0 = no effect, 100 = complete kill) at 125 g/ha (corn (Zea mays)) [%] | pest or weed control at 125 g/ha [2, 13] [%] | pest or weed control at 125 g/ha [3] [%] | pest or weed control at 125 g/ha [4, 14] [%] | pest or weed control at 125 g/ha [5, 15] [%] | plant injury at 125 g/ha [6, 16] [%] | pest or weed control at 125 g/ha [7, 17] [%] | pest or weed control at 125 g/ha (Kochia (Kochia scoparia); [18]) [%] | pest or weed control at 125 g/ha [8, 19] [%] | pest or weed control at 125 g/ha [9] [%] | pest or weed control at 500 g/ha [9] [%] | pest or weed control at 500 g/ha [1] [%] | Corn plant response rating (crop injury, 0 = no effect, 100 = complete kill) at 500 g/ha (corn (Zea mays)) [%] | pest or weed control at 500 g/ha [2, 21] [%] | pest or weed control at 500 g/ha [3] [%] | pest or weed control at 500 g/ha [4, 22] [%] | pest or weed control at 500 g/ha [5, 23] [%] | plant injury at 500 g/ha [6, 24] [%] | pest or weed control at 500 g/ha [7, 25] [%] | also measured
Cc1ccc([C@H]2CNC(=S)[C@@H]2C(=O)Nc2ccccc2F)cc1 (racemic) [Compound 945] | 80 | 0 | 20 | 0 | 0 | 0 | 0 | 0 | 0 | 0 | 0 | 0 | – | – | – | – | – | – | – | – | pest or weed control at 250 g/ha [10, 20]: 0%; pest or weed control at 250 g/ha [11, 20]: 0%; pest or weed control at 250 g/ha (rice (Oryra sativa); [20]): 0%; pest or weed control at 250 g/ha [12, 20]: 85%
O=C1NC[C@H](c2ccc3c(c2)OCO3)[C@H]1C(=O)Nc1ccc(F)c(F)c1F [Compound 1027] | 70 | 0 | – | 0 | – | – | – | – | – | – | 0 | 40 | 90 | 0 | 70 | 40 | 0 | 30 | 0 | 0 | pest or weed control at 125 g/ha ([2]; postemergence, visual injury on 0 to 100 scale (0 no effect, 100 complete control), approx. 10 d, read-out: Galium plant response rating): 50%; pest or weed control at 125 g/ha ([4]; postemergence, visual injury on 0 to 100 scale (0 no effect, 100 complete control), approx. 10 d, read-out: Ragweed plant response rating): 0%; pest or weed control at 125 g/ha ([5]; postemergence, visual injury on 0 to 100 scale (0 no effect, 100 complete control), approx. 10 d, read-out: Ryegrass, Italian plant response rating): 0%; plant injury at 125 g/ha ([6]; postemergence, visual injury on 0 to 100 scale (0 no effect, 100 complete control), approx. 10 d, read-out: Wheat plant response rating): 0%; pest or weed control at 125 g/ha ([7]; postemergence, visual injury on 0 to 100 scale (0 no effect, 100 complete control), approx. 10 d, read-out: Pigweed plant response rating): 0%; pest or weed control at 125 g/ha (Kochia (Kochia scoparia); postemergence, visual injury on 0 to 100 scale (0 no effect, 100 complete control), approx. 10 d, read-out: Kochia plant response rating): 0%; pest or weed control at 500 g/ha (Kochia (Kochia scoparia); [26]): 30%; pest or weed control at 125 g/ha ([8]; postemergence, visual injury on 0 to 100 scale (0 no effect, 100 complete control), approx. 10 d, read-out: Foxtail, Giant plant response rating): 20%; pest or weed control at 500 g/ha [8, 27]: 60%; pest or weed control at 250 g/ha [10, 28]: 40%; pest or weed control at 250 g/ha [11, 28]: 0%; pest or weed control at 250 g/ha (rice (Oryra sativa); [28]): 30%; pest or weed control at 250 g/ha [12, 28]: 100%
Cc1ccc([C@H]2CN(C)C(=O)[C@@H]2C(=O)Nc2cccc(F)c2F)cc1Cl [Compound 1013] | 90 | 80 | 70 | 0 | 0 | 0 | 40 | 0 | 40 | 80 | 30 | 40 | 90 | 90 | 70 | 40 | 40 | 60 | 60 | 40 | pest or weed control at 500 g/ha (Kochia (Kochia scoparia); [26]): 60%; pest or weed control at 500 g/ha [8, 27]: 90%; pest or weed control at 250 g/ha [10, 28]: 55%; pest or weed control at 250 g/ha [11, 28]: 100%; pest or weed control at 250 g/ha (rice (Oryra sativa); [28]): 70%; pest or weed control at 250 g/ha [12, 28]: 100%
